Test results from US9326506B2, “Preparation method, agricultural composition and applications of natural brassinolide analogs” (CHENGDU NEWSUN CROPSCIENCE CO., LTD, priority 2012, dated 2016).

Test system: rice
Assay: Low temperature assay on rice seedlings
Type: in vivo
Procedure, shortened: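 Nine-day-old etiolated rice seedlings (grown on water at 30 °C±2 °C, dark) immersed in brassinolide analogues at 1–0.0001 mg/L or pure water, held at 1–5 °C for 24 hr. Plant height, leaf area, root weight read at 3, 6, 9, 12 days; leaf and tiller number at 12 days.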

## CC(C)C[C@@H](O)[C@H](O)[C@@H](C)[C@H]1CCC2C3CC(=O)C4C[C@H](O)[C@H](O)C[C@]4(C)C3CC[C@@]21C (stereo partly shown) [BR5]
0.0001 mg/l, 1 °C, 3 days
  Area of leaf: 9.8 cm^2
  Height: 6.8 cm
  Weight of root: 2.8 g
0.0001 mg/l, 1 °C, 6 days
  Area of leaf: 11.2 cm^2
  Height: 6.9 cm
  Weight of root: 3.1 g
0.0001 mg/l, 1 °C, 9 days
  Area of leaf: 12 cm^2
  Height: 7 cm
  Weight of root: 3.4 g
0.0001 mg/l, 1 °C, 12 days
  Area of leaf: 13.1 cm^2
  Height: 7.2 cm
  Number of leaf: 3
  Number of tiller: 3
  Weight of root: 3.6 g
0.0001 mg/l, 2 °C, 3 days
  Area of leaf: 10 cm^2
  Height: 6.8 cm
  Weight of root: 2.8 g
0.0001 mg/l, 2 °C, 6 days
  Area of leaf: 11.7 cm^2
  Height: 7 cm
  Weight of root: 3.0 g
0.0001 mg/l, 2 °C, 9 days
  Area of leaf: 12.4 cm^2
  Height: 7.1 cm
  Weight of root: 3.2 g
0.0001 mg/l, 2 °C, 12 days
  Area of leaf: 13 cm^2
  Height: 7.4 cm
  Number of leaf: 3
  Number of tiller: 3
  Weight of root: 3.4 g
0.0001 mg/l, 3 °C, 3 days
  Area of leaf: 10 cm^2
  Height: 6.9 cm
  Weight of root: 2.5 g
0.0001 mg/l, 3 °C, 6 days
  Area of leaf: 11.8 cm^2
  Height: 7.2 cm
  Weight of root: 2.6 g
0.0001 mg/l, 3 °C, 9 days
  Area of leaf: 12.3 cm^2
  Height: 7.4 cm
  Weight of root: 2.9 g
0.0001 mg/l, 3 °C, 12 days
  Area of leaf: 13.2 cm^2
  Height: 7.5 cm
  Number of leaf: 3
  Number of tiller: 2
  Weight of root: 2.9 g
0.0001 mg/l, 4 °C, 3 days
  Area of leaf: 10 cm^2
  Height: 6.9 cm
  Weight of root: 2.5 g
0.0001 mg/l, 4 °C, 6 days
  Area of leaf: 11.7 cm^2
  Height: 7.3 cm
  Weight of root: 2.6 g
0.0001 mg/l, 4 °C, 9 days
  Area of leaf: 13 cm^2
  Height: 7.5 cm
  Weight of root: 2.7 g
0.0001 mg/l, 4 °C, 12 days
  Area of leaf: 13.4 cm^2
  Height: 7.6 cm
  Number of leaf: 3
  Number of tiller: 2
  Weight of root: 2.9 g
0.0001 mg/l, 5 °C, 3 days
  Area of leaf: 10.2 cm^2
  Height: 7.0 cm
  Weight of root: 2.5 g
0.0001 mg/l, 5 °C, 6 days
  Area of leaf: 12 cm^2
  Height: 7.2 cm
  Weight of root: 2.7 g
0.0001 mg/l, 5 °C, 9 days
  Area of leaf: 13.2 cm^2
  Height: 7.5 cm
  Weight of root: 2.9 g
0.0001 mg/l, 5 °C, 12 days
  Area of leaf: 14 cm^2
  Height: 7.7 cm
  Number of leaf: 3
  Number of tiller: 2
  Weight of root: 3.0 g
0.001 mg/l, 1 °C, 3 days
  Area of leaf: 10.1 cm^2
  Height: 6.9 cm
  Weight of root: 2.8 g
0.001 mg/l, 1 °C, 6 days
  Area of leaf: 11.3 cm^2
  Height: 7.1 cm
  Weight of root: 3.1 g
0.001 mg/l, 1 °C, 9 days
  Area of leaf: 12.8 cm^2
  Height: 7.2 cm
  Weight of root: 3.3 g
0.001 mg/l, 1 °C, 12 days
  Area of leaf: 13 cm^2
  Height: 7.3 cm
  Number of leaf: 3
  Number of tiller: 3
  Weight of root: 3.9 g
0.001 mg/l, 2 °C, 3 days
  Area of leaf: 9.8 cm^2
  Height: 6.9 cm
  Weight of root: 2.8 g
0.001 mg/l, 2 °C, 6 days
  Area of leaf: 11.6 cm^2
  Height: 7.1 cm
  Weight of root: 3.0 g
0.001 mg/l, 2 °C, 9 days
  Area of leaf: 12.2 cm^2
  Height: 7.3 cm
  Weight of root: 3.2 g
0.001 mg/l, 2 °C, 12 days
  Area of leaf: 13.1 cm^2
  Height: 7.3 cm
  Number of leaf: 3
  Number of tiller: 3
  Weight of root: 3.9 g
0.001 mg/l, 3 °C, 3 days
  Area of leaf: 10 cm^2
  Height: 7 cm
  Weight of root: 2.5 g
0.001 mg/l, 3 °C, 6 days
  Area of leaf: 12 cm^2
  Height: 7 cm
  Weight of root: 2.6 g
0.001 mg/l, 3 °C, 9 days
  Area of leaf: 12.4 cm^2
  Height: 7.3 cm
  Weight of root: 2.9 g
0.001 mg/l, 3 °C, 12 days
  Area of leaf: 13 cm^2
  Height: 7.4 cm
  Number of leaf: 3
  Number of tiller: 2
  Weight of root: 2.9 g
0.001 mg/l, 4 °C, 3 days
  Area of leaf: 10 cm^2
  Height: 7.1 cm
  Weight of root: 2.5 g
0.001 mg/l, 4 °C, 6 days
  Area of leaf: 12.1 cm^2
  Height: 7.3 cm
  Weight of root: 2.6 g
0.001 mg/l, 4 °C, 9 days
  Area of leaf: 13 cm^2
  Height: 7.5 cm
  Weight of root: 2.9 g
0.001 mg/l, 4 °C, 12 days
  Area of leaf: 13.5 cm^2
  Height: 7.5 cm
  Number of leaf: 3
  Number of tiller: 2
  Weight of root: 2.9 g
0.001 mg/l, 5 °C, 3 days
  Area of leaf: 10.2 cm^2
  Height: 7.2 cm
  Weight of root: 2.8 g
0.001 mg/l, 5 °C, 6 days
  Area of leaf: 14 cm^2
  Height: 7.5 cm
  Weight of root: 2.9 g
0.001 mg/l, 5 °C, 9 days
  Area of leaf: 15.4 cm^2
  Height: 7.6 cm
  Weight of root: 3.0 g
0.001 mg/l, 5 °C, 12 days
  Area of leaf: 16 cm^2
  Height: 8 cm
  Number of leaf: 3
  Number of tiller: 3
  Weight of root: 3.4 g
0.01 mg/l, 1 °C, 3 days
  Area of leaf: 10.1 cm^2
  Height: 7.0 cm
  Weight of root: 2.8 g
0.01 mg/l, 1 °C, 6 days
  Area of leaf: 11.6 cm^2
  Height: 7.2 cm
  Weight of root: 3.0 g
0.01 mg/l, 1 °C, 9 days
  Area of leaf: 12 cm^2
  Height: 7.3 cm
  Weight of root: 3.1 g
0.01 mg/l, 1 °C, 12 days
  Area of leaf: 13.6 cm^2
  Height: 7.5 cm
  Number of leaf: 3
  Number of tiller: 3
  Weight of root: 3.9 g
0.01 mg/l, 2 °C, 3 days
  Area of leaf: 10.1 cm^2
  Height: 7.1 cm
  Weight of root: 2.8 g
0.01 mg/l, 2 °C, 6 days
  Area of leaf: 11.1 cm^2
  Height: 7.2 cm
  Weight of root: 3 g
0.01 mg/l, 2 °C, 9 days
  Area of leaf: 12.1 cm^2
  Height: 7.5 cm
  Weight of root: 3 g
0.01 mg/l, 2 °C, 12 days
  Area of leaf: 13.4 cm^2
  Height: 7.5 cm
  Number of leaf: 3
  Number of tiller: 3
  Weight of root: 3.2 g
0.01 mg/l, 3 °C, 3 days
  Area of leaf: 10.2 cm^2
  Height: 7.1 cm
  Weight of root: 2.5 g
0.01 mg/l, 3 °C, 6 days
  Area of leaf: 12 cm^2
  Height: 7.2 cm
  Weight of root: 2.6 g
0.01 mg/l, 3 °C, 9 days
  Area of leaf: 12.2 cm^2
